Test results taken from ChEMBL document CHEMBL1201862, “PubChem BioAssay data set” (2004).
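Assay format: 96-well plates, 48-hour exposure. Abbreviation: GI50, concentration required for 50% inhibition of growth.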 Activity calls are given as the source filed them. Cut-off read from the data, not from the text of the source: active = GI50 up to about 1.1 µM and inactive = higher.

Tests used:
Test in all cases: NCI anticancer screen, dose series, 48 h
786-0 = test system: 786-0
A498 = test system: A498
A549 = test system: A549
ACHN = test system: ACHN
CAKI-1 = test system: CAKI-1
EKVX = test system: EKVX
HOP-92 = test system: HOP-92
LOX IMVI = test system: LOX IMVI
MDA-MB-231 = test system: MDA-MB-231
MDA-N = test system: MDA-N
NCI-H522 = test system: NCI-H522
NCI/ADR-RES = test system: NCI/ADR-RES
OVCAR-3 = test system: OVCAR-3
RXF 393 = test system: RXF 393
SK-OV-3 = test system: SK-OV-3
SNB-19 = test system: SNB-19
U-251 = test system: U-251
UACC-257 = test system: UACC-257
SK-MEL-5 = test system: SK-MEL-5
RPMI-8226 = test system: RPMI-8226

Sc1nnc(COc2ccc(Cl)cc2)n1-c1ccccc1
GI50 (786-0): > 100 µM (inactive) | GI50 (A498): > 100 µM (inactive) | GI50 (A549): > 100 µM (inactive) | GI50 (ACHN): > 100 µM (inactive) | GI50 (CAKI-1): 17.5 µM (inactive) | GI50 (EKVX): > 100 µM (inactive) | GI50 (HOP-92): > 100 µM (inactive) | GI50 (LOX IMVI): 49.3 µM (inactive) | GI50 (MDA-MB-231): > 100 µM (inactive) | GI50 (MDA-N): > 100 µM (inactive) | GI50 (NCI-H522): 5.4 µM (inactive) | GI50 (NCI/ADR-RES): > 100 µM (inactive) | GI50 (OVCAR-3): > 100 µM (inactive) | GI50 (RXF 393): > 100 µM (inactive) | GI50 (SK-OV-3): > 100 µM (inactive) | GI50 (SNB-19): > 100 µM (inactive) | GI50 (U-251): > 100 µM (inactive) | GI50 (UACC-257): > 100 µM (inactive)

CC(C)C(=O)NCC[C@@H](CNC(=O)OC(C)(C)C)NC(=O)OC(C)(C)C
GI50 (786-0): > 100 µM (inactive) | GI50 (A498): > 100 µM (inactive) | GI50 (A549): > 100 µM (inactive) | GI50 (ACHN): > 100 µM (inactive) | GI50 (CAKI-1): > 100 µM (inactive) | GI50 (EKVX): > 100 µM (inactive) | GI50 (HOP-92): > 100 µM (inactive) | GI50 (MDA-MB-231): > 100 µM (inactive) | GI50 (MDA-N): > 100 µM (inactive) | GI50 (NCI-H522): > 100 µM (inactive) | GI50 (NCI/ADR-RES): > 100 µM (inactive) | GI50 (OVCAR-3): > 100 µM (inactive) | GI50 (RXF 393): > 100 µM (inactive) | GI50 (SK-MEL-5): > 100 µM (inactive) | GI50 (SK-OV-3): > 100 µM (inactive) | GI50 (SNB-19): > 100 µM (inactive) | GI50 (U-251): > 100 µM (inactive) | GI50 (UACC-257): > 100 µM (inactive)

Cc1cc(Cl)nc(Nc2nc3ccccc3[nH]2)n1
GI50 (786-0): > 100 µM (inactive) | GI50 (A498): > 100 µM (inactive) | GI50 (A549): > 100 µM (inactive) | GI50 (ACHN): > 100 µM (inactive) | GI50 (HOP-92): 21.8 µM (inactive) | GI50 (LOX IMVI): > 100 µM (inactive) | GI50 (MDA-MB-231): > 100 µM (inactive) | GI50 (MDA-N): > 100 µM (inactive) | GI50 (NCI-H522): 2.96 µM (inactive) | GI50 (NCI/ADR-RES): > 100 µM (inactive) | GI50 (OVCAR-3): > 100 µM (inactive) | GI50 (RXF 393): > 100 µM (inactive) | GI50 (SK-MEL-5): > 100 µM (inactive) | GI50 (SK-OV-3): > 100 µM (inactive) | GI50 (SNB-19): > 100 µM (inactive) | GI50 (U-251): > 100 µM (inactive) | GI50 (UACC-257): > 100 µM (inactive)

COC(=O)[C@H](CCSC)NC(=O)N[C@H](C)c1ccccc1
GI50 (786-0): > 100 µM (inactive) | GI50 (A498): > 100 µM (inactive) | GI50 (A549): > 100 µM (inactive) | GI50 (ACHN): > 100 µM (inactive) | GI50 (CAKI-1): > 100 µM (inactive) | GI50 (EKVX): > 100 µM (inactive) | GI50 (HOP-92): 43.5 µM (inactive) | GI50 (LOX IMVI): > 100 µM (inactive) | GI50 (MDA-MB-231): > 100 µM (inactive) | GI50 (MDA-N): > 100 µM (inactive) | GI50 (NCI-H522): 26.1 µM (inactive) | GI50 (NCI/ADR-RES): 60.7 µM (inactive) | GI50 (OVCAR-3): > 100 µM (inactive) | GI50 (RPMI-8226): > 100 µM (inactive) | GI50 (SK-MEL-5): > 100 µM (inactive) | GI50 (SK-OV-3): > 100 µM (inactive) | GI50 (SNB-19): > 100 µM (inactive) | GI50 (U-251): > 100 µM (inactive) | GI50 (UACC-257): 86.7 µM (inactive)

Cc1ccc(S(=O)(=O)n2cc(-c3cnc(N)c(Br)n3)c3ccccc32)cc1
GI50 (786-0): 2.33 µM (inactive) | GI50 (A498): 2.68 µM (inactive) | GI50 (A549): 2.22 µM (inactive) | GI50 (ACHN): 5.46 µM (inactive) | GI50 (CAKI-1): 3.32 µM (inactive) | GI50 (EKVX): 3.48 µM (inactive) | GI50 (HOP-92): 3.94 µM (inactive) | GI50 (LOX IMVI): 2.94 µM (inactive) | GI50 (MDA-MB-231): 2.54 µM (inactive) | GI50 (MDA-N): 0.246 µM (active) | GI50 (NCI/ADR-RES): 2.04 µM (inactive) | GI50 (OVCAR-3): 1.02 µM (active) | GI50 (RPMI-8226): 1.78 µM (inactive) | GI50 (RXF 393): 0.484 µM (active) | GI50 (SK-MEL-5): 2.91 µM (inactive) | GI50 (SK-OV-3): 4.26 µM (inactive) | GI50 (SNB-19): 1.01 µM (active) | GI50 (U-251): 0.902 µM (active) | GI50 (UACC-257): 12.9 µM (inactive)

COC(=O)[C@@H]1CC(C(CN)c2cn(C(=O)OC(C)(C)C)c3ccccc23)C(=O)N1C(=O)OC(C)(C)C (some centres not stated)
GI50 (786-0): 31.3 µM (inactive) | GI50 (A498): 20.1 µM (inactive) | GI50 (A549): 35.3 µM (inactive) | GI50 (ACHN): 29.3 µM (inactive) | GI50 (CAKI-1): 29.2 µM (inactive) | GI50 (EKVX): 19.4 µM (inactive) | GI50 (LOX IMVI): 14.8 µM (inactive) | GI50 (MDA-MB-231): 22.4 µM (inactive) | GI50 (MDA-N): 20 µM (inactive) | GI50 (NCI-H522): 22.5 µM (inactive) | GI50 (NCI/ADR-RES): 17.2 µM (inactive) | GI50 (OVCAR-3): 24.6 µM (inactive) | GI50 (RPMI-8226): 10.6 µM (inactive) | GI50 (RXF 393): 18 µM (inactive) | GI50 (SK-MEL-5): 17.2 µM (inactive) | GI50 (SNB-19): 69.3 µM (inactive) | GI50 (U-251): 38.9 µM (inactive) | GI50 (UACC-257): 17.7 µM (inactive)

CC[C@@]1(O)C(=O)OCc2c1cc1n(c2=O)Cc2c-1nc1ccccc1c2/C=N\NC(=O)C(N)Cc1ccc(O)cc1 (some centres not stated)
GI50 (786-0): 0.374 µM (active) | GI50 (A498): 0.813 µM (active) | GI50 (A549): 0.815 µM (active) | GI50 (ACHN): 0.133 µM (active) | GI50 (CAKI-1): 0.315 µM (active) | GI50 (EKVX): 2.57 µM (inactive) | GI50 (HOP-92): 1.27 µM (inactive) | GI50 (LOX IMVI): 0.189 µM (active) | GI50 (MDA-MB-231): 15.8 µM (inactive) | GI50 (MDA-N): 3.35 µM (inactive) | GI50 (NCI-H522): 0.998 µM (active) | GI50 (NCI/ADR-RES): 1.33 µM (inactive) | GI50 (RPMI-8226): 0.867 µM (active) | GI50 (SK-MEL-5): 0.638 µM (active) | GI50 (SK-OV-3): 0.869 µM (active) | GI50 (SNB-19): 0.267 µM (active) | GI50 (U-251): 0.248 µM (active) | GI50 (UACC-257): 2.45 µM (inactive)
